{"source": "patent US9763911B2", "about": "“Prostacyclin compositions for regulation of fracture repair and bone formation” (MAYO FOUNDATION FOR MEDICAL EDUCATION AND RESEARCH, priority 2013, dated 2017)", "key": {"[1]": {"test_system": "6-keto PGF1α (PGI2 synthesis) in KO OC clone 8 cells", "experiment": "6-keto PGF1α in culture medium of treated Sost KO clonal osteocytes (EIA)", "type": "cell-based, mouse", "details": "100 nM C59, 48 h, vehicle 274.964±6.006 pg/mL, P=0.012 (FIG. 7B)", "protocol": "(§1) FIGS. 7A and 7B show inhibition of Wnt secretion with C-59 reduces intra-cellular activated β-catenin concentrations and 6-keto PGF1α concentrations. […] KO OC clone 8 cells were treated with a Wnt inhibitor, C-59 (2-(4-(2-methylpyridin-4-yl)phenyl)-N-(4(pyridine-3-yl)phenyl)acetamide) to assess the functional importance of β-catenin signaling in sclerostin-mediated increases in PGI2 synthesis.\nAll prostaglandin metabolite measurements were performed by enzyme immunoassay (EIA) using kits from Cayman Chemical (Ann Arbor, Mich.). 6-Keto prostaglandin Flα (Catalog Number 515211), prostaglandin E2 (Catalog Number 514010), Prostaglandin E Metabolite (Catalog Number 514531), prostaglandin F2α (Catalog Number 516011), prostaglandin D2 (Catalog Number 512031), and thromboxane B2 (Catalog Number 519031) were all performed according to kit instructions. Culture medium was diluted 1:2 in supplied buffer for each metabolite measurement, solubilized bone proteins were diluted 1:100 in supplied buffer for each metabolite measurement, and urine was diluted 1:500 in supplied buffer for each metabolite measurement.\nWells in a 6-well collagen treated plate were seeded with 0.2×10^6 sclerostin knock-out osteocytes (Clone KO8). After 48 hours, normal growth medium was removed, and cells were rinsed with PBS. […]"}, "[2]": {"test_system": "β-catenin in KO OC clone 8 cells", "experiment": "Activated β-catenin protein in Sost KO clonal osteocytes treated with Wnt inhibitor (immunoblot)", "type": "cell-based, mouse", "details": "KO OC 8 cells, treatment for 48 hours, vs vehicle, P<0.05 (FIG. 7A)", "protocol": "as §1\nWells in a 6-well collagen treated plate were seeded with 0.2×10^6 sclerostin knock-out osteocytes (Clone KO8). After 48 hours, normal growth medium was removed, and cells were rinsed with PBS. Serum-free media was then added (α-MEM, 1% P/S) to the osteocytes as was well as either 100 nM of the small molecule Wnt inhibitor, C59 (2-(4-(2-methylpyridin-4-yl)phenyl)-N-(4-(pyridine-3-yl)phenyl) acetamide), or a vehicle control. After a 48 hour incubation, media was harvested from both vehicle and experimental wells and assayed for 6-keto prostaglandin F1α.\nCell lysates from 6- or 12-well plates were prepared by scraping cells in lysis buffer (0.1% SDS, 150 mM NaCl, 2 mM sodium vanadate, 0.5% sodium deoxycholate, 1% NP-40 50 mM Tris pH 8.2, 1 mM EDTA with one mini-complete protease inhibitor cocktail EDTA-free tab (Roche Diagnostics, Indianapolis, Ind.)) per 7 ml lysis solution or by direct addition of 1×SDS sample containing 5 mM EDTA and protease inhibitor as above. […]"}}}
{"smiles": "Cc1cc(-c2ccc(CC(=O)Nc3ccc(-c4cccnc4)cc3)cc2)ccn1", "note": "[C59, 2-(4-(2-methylpyridin-4-yl)phenyl)-N-(4(pyridine-3-yl)phenyl)acetamide]", "values": [{"measurement": "6-keto PGF1α in culture medium", "setting": "[1]", "value": "536.409 ± 60.690", "unit": "pg/mL"}, {"measurement": "β-catenin protein concentration in cells", "setting": "[2]", "value": "statistically significant decrease"}]}
